# Experiment: excess molar enthalpy (molar enthalpy of mixing); xn = mol fraction of the nth substance listed
# Conditions: 100 kPa
compound,measurement,setting,value
C1CCOCC1 + CCCCO,excess molar enthalpy,"283.15 K, x1 = 0.04",0.0282 kcal/mol
same,excess molar enthalpy,"283.15 K, x1 = 0.09",0.0574 kcal/mol
same,excess molar enthalpy,"283.15 K, x1 = 0.188",0.108 kcal/mol
same,excess molar enthalpy,"283.15 K, x1 = 0.288",0.15 kcal/mol
same,excess molar enthalpy,"283.15 K, x1 = 0.39",0.182 kcal/mol
same,excess molar enthalpy,"283.15 K, x1 = 0.49",0.199 kcal/mol
same,excess molar enthalpy,"283.15 K, x1 = 0.593",0.204 kcal/mol
same,excess molar enthalpy,"283.15 K, x1 = 0.694",0.192 kcal/mol
same,excess molar enthalpy,"283.15 K, x1 = 0.796",0.159 kcal/mol
same,excess molar enthalpy,"283.15 K, x1 = 0.901",0.0963 kcal/mol
same,excess molar enthalpy,"283.15 K, x1 = 0.952",0.0528 kcal/mol
same,excess molar enthalpy,"298.15 K, x1 = 0.04",0.0299 kcal/mol
same,excess molar enthalpy,"298.15 K, x1 = 0.09",0.0614 kcal/mol
same,excess molar enthalpy,"298.15 K, x1 = 0.288",0.165 kcal/mol
same,excess molar enthalpy,"298.15 K, x1 = 0.39",0.201 kcal/mol
same,excess molar enthalpy,"298.15 K, x1 = 0.593",0.223 kcal/mol
same,excess molar enthalpy,"298.15 K, x1 = 0.796",0.167 kcal/mol
same,excess molar enthalpy,"298.15 K, x1 = 0.901",0.0985 kcal/mol
same,excess molar enthalpy,"298.15 K, x1 = 0.952",0.0531 kcal/mol
same,excess molar enthalpy,"313.15 K, x1 = 0.04",0.0284 kcal/mol
same,excess molar enthalpy,"313.15 K, x1 = 0.09",0.0617 kcal/mol
same,excess molar enthalpy,"313.15 K, x1 = 0.188",0.124 kcal/mol
same,excess molar enthalpy,"313.15 K, x1 = 0.288",0.176 kcal/mol
same,excess molar enthalpy,"313.15 K, x1 = 0.39",0.215 kcal/mol
same,excess molar enthalpy,"313.15 K, x1 = 0.49",0.234 kcal/mol
same,excess molar enthalpy,"313.15 K, x1 = 0.694",0.218 kcal/mol
same,excess molar enthalpy,"313.15 K, x1 = 0.796",0.171 kcal/mol
same,excess molar enthalpy,"313.15 K, x1 = 0.901",0.0975 kcal/mol
same,excess molar enthalpy,"313.15 K, x1 = 0.952",0.0516 kcal/mol

# From a compilation of properties of binary mixtures (doi:10.1021/je0498457)
